Data on three compounds can be found in PMC7239840, “A traffic light enzyme: acetate binding reversibly switches chlorite dismutase from a red- to a green-colored heme protein” (Journal of Biological Inorganic Chemistry, 2020).

Assay [1] concerns the target T1, chlorite dismutase (AoCld) (Azospira oryzae, UniProt E2DI02). Briefly: biochemical.
For assay [2], the target named is T1, chlorite dismutase (AoCld). As to the kind of experiment: UV-visible equilibrium binding titration (Soret band), pH […]; EPR with […] hyperfine splitting. The arrangement: recombinant, N-terminal His6 tag.
For assay [3], the target named is T1, chlorite dismutase (AoCld). As to the kind of experiment: UV-visible equilibrium binding titration (Soret band), pH […]; EPR low-spin adduct. The arrangement: recombinant, N-terminal His6 tag.
The target in assay [4] is T2, chlorite dismutase (AoCld) R183A (Azospira oryzae, UniProt E2DI02, R217A).
T2 construct: recombinant, N-terminal His6 tag
T2 sequence (E2DI02 35-282, stated change not applied): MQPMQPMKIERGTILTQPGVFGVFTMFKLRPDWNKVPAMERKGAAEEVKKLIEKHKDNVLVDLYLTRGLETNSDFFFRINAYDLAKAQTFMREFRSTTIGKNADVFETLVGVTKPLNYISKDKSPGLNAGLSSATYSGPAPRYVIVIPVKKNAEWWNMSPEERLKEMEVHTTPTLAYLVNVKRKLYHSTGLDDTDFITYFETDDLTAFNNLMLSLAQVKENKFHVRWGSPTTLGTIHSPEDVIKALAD
Briefly: ligand binding to the R183A mutant (Fig. S7).

T1 sequence (E2DI02 35-282): as the sequence (E2DI02 35-282, stated change not applied) above

As to `CC(=O)O` [Ac, acetate], in assay [1], binding was characterised by a dissociation constant (Kd) of 17.5 ± 0.5 mM. For `F` [F^−, fluoride], the equilibrium dissociation constant (Kd) (in general, the concentration at which binding is half-saturated) in assay [2] came to 15.6 ± 1.9 mM. In the case of `c1c[nH]cn1` [Im, imidazole], the Kd in assay [3] amounted to 0.0105 ± 0.0024 mM. Besides, in assay [4], the “ligand binding to the R183A mutant (Fig. S7)” value is “Mutagenesis of Arg183 to Ala results in the complete loss of affinity for fluoride and acetate, but not for imidazole”.
